The assay can be described thus: Modulation of human wild-type APP695 expressed in SH-SY5Y cells assessed as inhibition of amyloid beta (1 to 42 residues) production measured after 24 hrs by ELISA.
`CCN(CC)Cc1cc(NC(=O)CN2CCCCC2)cc(Nc2ccnc3cc(Cl)ccc23)c1`: the half-maximal inhibitory concentration (IC50) (in general, the concentration that gives 50% inhibition) is 2.8 µM.
As for `c1ccc(Nc2cc(CNCCN3CCCCC3)cc(CNCCN3CCCCC3)c2)c(CN2CCCCC2)c1`, the figure is 6 µM.
Then `O=C(NCCN1CCCCC1)c1cc(C(=O)NCCN2CCCCC2)cc(-c2ccccc2CN2CCCCC2)c1`, with 9.4 µM; and `CN(C)CCN(C)Cc1cc(NC(=O)CN2CCCCC2)cc(Nc2ccnc3cc(Cl)ccc23)c1`, with 2.9 µM.
Take `Oc1c(CN2CCCC2)cc(Nc2ccnc3cc(Cl)ccc23)cc1CN1CCCC1`: the 50% inhibitory concentration (IC50) amounted to 11.2 µM.
Then `c1ccc(Nc2cc(CNCCN3CCCCC3)cc(CNCCN3CCCCC3)c2)c(CN2CCOCC2)c1`, with 7.9 µM.
`CCN(CC)CCC[C@@H](C)Nc1ccnc2cc(Cl)ccc12` [Aralen]: the IC50 stood at 12.8 µM.
Then `O=C(CN1CCCCC1)Nc1cc(CN2CCOCC2)cc(Nc2ccnc3cc(Cl)ccc23)c1`, with 7.1 µM; and `CN(C)Cc1ccccc1Nc1cc(C(=O)NCCN2CCCCC2)cc(C(=O)NCCN2CCCCC2)c1`, with more than 10 µM; and `CCN(CC)Cc1cccc(Nc2ccnc3cc(Cl)ccc23)c1`, with 10.4 µM.
In the case of `CN1CCN(c2cc(Nc3ccnc4cc(Cl)ccc34)cc(N3CCN(C)CC3)c2)CC1`, the IC50 is 1.9 µM.
Then `CCN(CC)Cc1cc(NCCN2CCCCC2)cc(Nc2ccnc3cc(Cl)ccc23)c1`, with 13.8 µM; and `CCN(CC)Cc1cc(Nc2ccnc3cc(Cl)ccc23)ccc1O` [Amodiaquin], with 5.4 µM.
Then `O=C(NCCN1CCCCC1)c1cc(Nc2ccccc2CN2CCCCC2)cc(C(=O)NCCN2CCCCC2)c1`, with 4.7 µM; and `Clc1ccc2c(Nc3cc(CN4CCOCC4)cc(NCCN4CCCCC4)c3)ccnc2c1`, with 4.9 µM.

For the origin of these results see BindingDB's records for doi:10.1016/j.bmc.2018.03.016 (University of Lille, 2018).
